In patent publication EP0907632B1, “INHIBITION OF MATRIX METALLOPROTEASES BY SUBSTITUTED PHENETHYL COMPOUNDS” (Bayer Corporation, priority 1996, dated 1997):

Experiments:
MMP-3 = target: T1, MMP-3 (Homo sapiens, UniProt P08254); format: biochemical; conditions: 6 µM P218 substrate, pH 6.5, 25 min at 37°C; calculated from IC50; read-out: MMP-3 Kf
T1 construct: made in house; host or cells: CHO cells
Source text: (§1) The P218 quenched fluorescence assay (Microfluorometric Profiling Assay) is a modification of that originally described by Knight, et al., FEBS Lett. 296, 263, 1992 for a related substance and a variety of matrix metalloproteinases (MMPs) in cuvettes. The assay was run with each invention compound and the three MMPs, Mmp-3, MMP-9 and MMP-2, analyzed in parallel, adapted as follows for a 96-well microtiter plate and a Hamilton AT® workstation. P218 Fluorogenic Substrate: P218 is a synthetic substrate containing a 4-acetyl-7-methoxycoumarin (MCA) group in the N-terminal position and a 3-[2, 4-dinitrophenyl]-L-2,3-diaminopropionyl (DPA) group internally. This is a modification of a peptide reported by Knight (1992) that was used as a substrate for matrix metalloproteinases. Once the P218 peptide is cleaved (putative clip site at the Ala-Leu bond), the fluorescence of the MCA group can be detected on a fluorometer with excitation at 328 nm and emission at 393 nm. P218 is currently being produced BACHEM exclusively for Bayer. P218 has the structure: H-MCA-Pro-Lys-Pro-Leu-Ala-Leu-DPA-Ala-Arg-NH2 (MW 1332.2)
Recombinant Human CHO Pro-MMP-3: Human CHO pro-stromelysin-257 (pro-MMP-3) was expressed and purified as described by Housley, et al., J. Biol. Chem. 268, 4481, 1993.
Activation of Pro-MMP-3 Pro-MMP-3 at 1.72 µM (100 µg/mL) in 5 mM Tris at pH 7.5, 5 mM CaCl2, 25 mM NaCl, and 0.005% Brij-35 (MMP-3 activation buffer) was activated by incubation with TPCK (N-tosyl-(L)-phenylalanine chloromethyl ketone) trypsin (1:100 w/w to pro-MMP-3) at 25 °C for 30 min. The reaction was stopped by addition of soybean trypsin inhibitor (SBTI: 5:1 w/w to trypsin concentration). This activation protocol results in the formation of 45 kDa active MMP-3, which still contains the C-terminal portion of the enzyme.
(§2) Hamiltion Microlab AT P!us: The MMP-Profiling Assay is performed robotically on a Hamilton MicroLab AT Plus®. The Hamilton is programmed to: (1) serially dilute up to 11 potential inhibitors automatically from a 2.5 mM stock in 100% DMSO; (2) distribute substrate followed by inhibitor into a 96 well Cytofluor plate; and (3) add a single enzyme to the plate with mixing to start the reaction. Subsequent plates for each additional enzyme are prepared automatically by beginning the program at the substrate addition point, remixing the diluted inhibitors and beginning the reaction by addition of enzyme. In this way, all MMP assays were done using the same inhibitor dilutions.
(§3) Millipore Cytofluor II. Following incubation, the plate was read on a Cytofluor II fluorometric place reader with excitation at 340 nm and emission at 395 nm with the gain set at 80.
(§4) Microfluorometric Reaction Buffer (MRB): Dilution of test compounds, enzymes, and P218 substrate for the microfluorometric assay were made in microfluorometric reaction buffer consisting of 50 mM 2-(N-morpholino)ethanesulfonic acid (MES) at pH 6.5 with 10 mM CaCl2, 150 mM NaCl, 0.005% Brij-35 and 1% DMSO.
(§5) MMP Microfluorometric Profiling Assay. The assay is done with a final substrate concentration of 6 µM P218 and approximately .5 to .8 nM MMP with variable drug concentrations. The Hamilton is programmed to serially dilute up to 11 compounds from a 2.5 mM stock (100% DMSO) to 10x the final compounds concentrations in the assay. Initially, the instrument delivers various amounts of microfluoromentric reaction buffer (MRB) to a 96 tube rack of 1 ml Marsh dilution tubes. The instrument then picks up 20 µl of inhibitor (2.5 mM) from the sample rack and mixes it with a buffer in row A of the Marsh rack, resulting in a 50 µM drug concentration. The inhibitors are then serially diluted to 10, 5, 1, .2, .05 and .01 µM. Position 1 on the sample rack contains only DMSO for the "enzyme-only" wells in the assay, which results in no inhibitor in column 1, rows A through H. The instrument then distributes 107 µl of P218 substrate (8.2 µM in MRB) to a single 96 well cytofluor microtiter plate. […]

MMP-9 = target: T2, MMP-9 (Homo sapiens, UniProt P14780); format: biochemical; conditions: 6 µM P218 substrate, pH 6.5, 25 min at 37°C; calculated from IC50; read-out: MMP-9 Kf
T2 construct: made in house
T2 sequence (P14780 107-707 limits assumed): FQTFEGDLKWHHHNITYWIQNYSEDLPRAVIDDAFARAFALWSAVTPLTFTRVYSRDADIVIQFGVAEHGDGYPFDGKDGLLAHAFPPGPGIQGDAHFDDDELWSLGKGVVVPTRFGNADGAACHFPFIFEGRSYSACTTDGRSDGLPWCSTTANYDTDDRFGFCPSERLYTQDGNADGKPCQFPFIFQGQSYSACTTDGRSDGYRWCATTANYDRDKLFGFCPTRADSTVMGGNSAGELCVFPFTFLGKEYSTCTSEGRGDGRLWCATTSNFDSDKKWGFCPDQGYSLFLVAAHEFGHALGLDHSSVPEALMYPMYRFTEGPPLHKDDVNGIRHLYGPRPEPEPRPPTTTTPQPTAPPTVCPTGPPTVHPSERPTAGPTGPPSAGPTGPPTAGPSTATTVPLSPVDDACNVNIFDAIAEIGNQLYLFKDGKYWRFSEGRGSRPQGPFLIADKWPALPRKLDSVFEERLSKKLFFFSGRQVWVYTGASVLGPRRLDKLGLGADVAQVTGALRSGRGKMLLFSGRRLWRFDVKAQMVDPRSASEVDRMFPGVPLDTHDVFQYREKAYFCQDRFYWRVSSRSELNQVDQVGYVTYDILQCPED
Source text: as §1
Recombinant Human Pro-MMP-9: Human pro-gelatinase B (pro-MMP-9) derived from U937 cDNA as described by Wilhelm, et al. J. Biol. Chem. 264, 17213, 1989 was expressed as the full-length form using a baculovirus protein expression system. The pro-enzyme was purified using methods previously described by Hibbs, et al. J. Biol. Chem. 260, 2493, 1984.
Activation of Pro-MMP-9: […] 20 µg/mL in 50 mM Tris at pH 7.4, 10mM CaCl2, 150 mM NaCl, and 0.005% Brij-35 (MMP-9 activation buffer) was activated by incubation with 0.5 mM p-aminophenylmercuric acetate (APMA) for 3.5 h at 37 °C. The enzyme was dialyzed against the same buffer to remove the APMA.
as §2, §3, §4, §5

MMP-2 = target: T3, MMP-2 (Homo sapiens, UniProt P08253); assay: biochemical
T3 sequence (P08253 110-660): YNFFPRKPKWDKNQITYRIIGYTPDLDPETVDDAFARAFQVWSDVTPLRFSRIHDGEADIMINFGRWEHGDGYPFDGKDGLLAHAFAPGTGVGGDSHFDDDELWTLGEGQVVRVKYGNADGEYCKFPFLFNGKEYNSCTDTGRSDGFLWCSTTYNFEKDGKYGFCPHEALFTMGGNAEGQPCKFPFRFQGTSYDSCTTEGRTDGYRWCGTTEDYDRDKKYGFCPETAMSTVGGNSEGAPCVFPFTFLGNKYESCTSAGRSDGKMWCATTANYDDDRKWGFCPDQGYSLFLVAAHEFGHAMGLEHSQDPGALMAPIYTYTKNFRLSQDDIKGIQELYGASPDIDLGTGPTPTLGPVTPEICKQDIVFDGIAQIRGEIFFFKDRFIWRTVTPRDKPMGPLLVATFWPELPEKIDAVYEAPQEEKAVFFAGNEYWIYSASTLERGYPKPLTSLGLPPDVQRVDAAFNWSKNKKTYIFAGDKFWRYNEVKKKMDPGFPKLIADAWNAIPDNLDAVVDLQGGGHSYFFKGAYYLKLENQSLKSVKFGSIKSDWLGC

T1 sequence (P08254 100-477): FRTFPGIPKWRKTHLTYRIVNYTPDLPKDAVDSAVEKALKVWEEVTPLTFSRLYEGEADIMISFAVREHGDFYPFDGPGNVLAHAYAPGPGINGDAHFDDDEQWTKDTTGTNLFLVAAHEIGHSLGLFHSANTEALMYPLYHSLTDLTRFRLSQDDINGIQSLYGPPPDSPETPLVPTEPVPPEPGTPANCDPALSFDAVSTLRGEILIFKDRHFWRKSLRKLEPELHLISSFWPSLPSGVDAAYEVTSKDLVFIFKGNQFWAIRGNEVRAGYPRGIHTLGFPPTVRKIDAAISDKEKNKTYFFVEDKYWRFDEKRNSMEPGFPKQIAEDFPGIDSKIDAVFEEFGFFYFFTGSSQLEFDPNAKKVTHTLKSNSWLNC

SMILES | Ki (MMP-3) | Ki (MMP-9) | Ki (MMP-2)
O=C(CC(CCc1ccccc1C(=O)NCCc1ccccc1)C(=O)O)c1ccc(-c2ccc(Cl)cc2)cc1 (stereo not drawn) [Compound I, 4'-chloro-γ-oxo-α-[2-[2-[[(2-phenylethyl)amino]carbonyl]phenyl]ethyl]-[1,1'-biphenyl]-4-butanoic acid] | 127 nM | 173 nM | 41.1 nM
O=C(CC(CCc1cccc(C(=O)N2CCOCC2)c1)C(=O)O)c1ccc(-c2ccc(Cl)cc2)cc1 (stereo not drawn) [Compound X, 4'-chloro-α-[2-[3-(4-morpholinylcarbonyl)phenyl]ethyl]-γ-oxo-[1,1'-biphenyl]-4-butanoic acid] | 73.8 nM | 251 nM | 26.1 nM
O=C(CC(CCc1ccc(C(=O)NCCc2ccccc2)cc1)C(=O)O)c1ccc(-c2ccc(Cl)cc2)cc1 (stereo not drawn) [Compound XX, 4'-chloro-γ-oxo-α-[2-[4-[[(2-phenylethyl)amino]carbonyl]phenyl]ethyl]-[1,1'-biphenyl]-4-butanoic acid] |  | 2000 nM | 446 nM
O=C(CC(CCc1ccc(C(=O)N2CCCCC2)cc1)C(=O)O)c1ccc(-c2ccc(Cl)cc2)cc1 (stereo not drawn) [Compound XXI, 4'-chloro-γ-oxo-α-[2-[4-(1-piperidinylcarbonyl)phenyl]ethyl]-[1,1'-Biphenyl]-4-butanoic acid] | 242 nM | 806 nM | 84.1 nM
O=C(O)CNC(=O)c1ccccc1CCC(CC(=O)c1ccc(-c2ccc(Cl)cc2)cc1)C(=O)O (stereo not drawn) [Compound XXIII, α-[2-[2-[[(2-carboxymethyl)amino]carbonyl]phenyl]ethyl]-4'-chloro-γ-oxo-[1,1'-biphenyl]-4-butanoic acid] | 259 nM | 1590 nM | 96 nM
O=C(O)CCNC(=O)c1ccccc1CCC(CC(=O)c1ccc(-c2ccc(Cl)cc2)cc1)C(=O)O (centres unmarked) [Compound XXII] | 166 nM | 1130 nM | 63.5 nM
O=C(O)CNC(=O)c1ccc(CCC(CC(=O)c2ccc(-c3ccc(Cl)cc3)cc2)C(=O)O)cc1 (stereo not drawn) [Compound XXIV, α-[2-[4[[(carboxymethyl)amino]carbonyl]phenyl]ethyl]-4'-chloro-γ-oxo-[1,1'-biphenyl]-4-butanoic acid] | 293 nM | 915 nM | 82.4 nM
CCCCCOc1ccc(-c2ccc(C(=O)CC(CCc3cccc(C(=O)N4CCCCC4)c3)C(=O)O)cc2)cc1 (stereo not drawn) [Compound XXXI, γ-oxo-4'-(pentyloxy)-α-[2-[3-(1-piperidinylcarbonyl)phenyl]ethyl]-[1,1'-biphenyl]-4-butanoic acid] | 35.8 nM | 373 nM | 17 nM
O=C(CC(CCc1cccc(C(=O)N2CCCCC2)c1)C(=O)O)c1ccc(-c2ccc(OCc3ccccc3)cc2)cc1 (centres unmarked) [Compound XXX] | 12.5 nM | 102 nM | 4.44 nM
O=C(CC(CCc1ccccc1C(=O)NCc1ccccc1)C(=O)O)c1ccc(-c2ccc(Cl)cc2)cc1 (stereo not drawn) [III, 4'-chloro-γ-oxo-α-[2-[2-[[(phenylmethyl)amino]carbonyl]phenyl]ethyl]-[1,1'-biphenyl]-4-butanoic acid] | 174 nM | 475 nM | 60.3 nM
O=C(CC(CCc1ccccc1C(=O)NCCCc1ccccc1)C(=O)O)c1ccc(-c2ccc(Cl)cc2)cc1 (stereo not drawn) [IV, 4'-chloro-γ-oxo-α-[2-[2-[[(3-phenylpropyl)amino]carbonyl]phenyl]ethyl]-[1,1'-biphenyl]-4-butanoic acid] | 175 nM | 246 nM | 68.7 nM
CCOC(=O)CN(C)C(=O)c1ccccc1CCC(CC(=O)c1ccc(-c2ccc(Cl)cc2)cc1)C(=O)O (stereo not drawn) [IX, 4'-chloro-α-[2-[2-[[(2-ethoxy-2-oxoethyl)methylamino]carbonyl]phenyl]ethyl]-γ-oxo-[1,1'-biphenyl]-4-butanoic acid] | 43.6 nM | 254 nM | 17.5 nM
O=C(CC(CCc1ccccc1C(=O)N1CCCCC1)C(=O)O)c1ccc(-c2ccc(Cl)cc2)cc1 (stereo not drawn) [V, 4'-chloro-γ-oxo-α-[2-[2-(1-piperidinylcarbonyl)phenyl]ethyl]-[1,1'-biphenyl]-4-butanoic acid] | 54.7 nM | 146 nM | 13.8 nM
CC(C)CCNC(=O)c1ccccc1CCC(CC(=O)c1ccc(-c2ccc(Cl)cc2)cc1)C(=O)O (stereo not drawn) [VI, 4'-chloro-α-[2-[2-[[(3-methylbutyl)amino]carbonyl]phenyl]ethyl]-γ-oxo-[1,1'-biphenyl]-4-butanoic acid] | 214 nM | 431 nM | 58.1 nM
CCOC(=O)CNC(=O)c1ccccc1CCC(CC(=O)c1ccc(-c2ccc(Cl)cc2)cc1)C(=O)O (stereo not drawn) [VIII, 4'-chloro-α-[2-[2-[[(2-ethoxy-2-oxo-ethyl)amino]carbonyl]phenyl]ethyl]-γ-oxo-[1,1'-biphenyl]-4-butanoic acid] | 165 nM | 806 nM | 56.8 nM
O=C(CC(CCc1cccc(C(=O)NCCc2ccccc2)c1)C(=O)O)c1ccc(-c2ccc(Cl)cc2)cc1 (stereo not drawn) [XII, 4'-chloro-γ-oxo-α-[2-[3-[[(2-phenylethyl)amino]carbonyl]phenyl]ethyl]-[1,1'-biphenyl]-4-butanoic acid] | 450 nM | 2650 nM | 125 nM
O=C(CC(CCc1cccc(C(=O)NCCCc2ccccc2)c1)C(=O)O)c1ccc(-c2ccc(Cl)cc2)cc1 (stereo not drawn) [XIII, 4'-chloro-γ-oxo-α-[2-[3[[(3-phenylpropyl)amino]carbonyl]phenyl]ethyl]-[1,1'-biphenyl]-4-butanoic acid] | 236 nM | 552 nM | 157 nM
